# Measurements published in patent US20230085307A1, “PYRIDAZINONE COMPOUND AND HERBICIDE” (NISSAN CHEMICAL CORPORATION, priority 2019, published 2023).
# Columns and labels:
# barnyard grass [1] = experiment: Test Example 3: herbicidal effect by foliage application, Wagner pot (Table 18, symbol H); format: in vivo, barnyard grass (Echinochloa crus-galli); details: 320 g/ha
# Procedure, shortened: (§1)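 Plants were sown in alluvial soil held under 0.1–0.5 cm standing water and grown 14 days in a greenhouse at 25–30 °C. An emulsifiable formulation, water-diluted to the set dose, was then sprayed onto the foliage, and effects were scored three weeks later using previously defined criteria.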
# Chinese sprangletop = experiment: Test Example 3: herbicidal effect by foliage application, Wagner pot (Table 18, symbol D); format: in vivo, chinese sprangletop (Leptochloa chinensis); details: 320 g/ha
# Procedure, shortened: as §1
# rice flat sedge = experiment: Test Example 3: herbicidal effect by foliage application, Wagner pot (Table 18, symbol E); format: in vivo, rice flat sedge (Cyperus iria); details: 320 g/ha
# Procedure, shortened: as §1
# southern crabgrass [2] = experiment: Test Example 4: herbicidal effect by soil treatment (Table 19, symbol F); format: in vivo, southern crabgrass (Digitaria ciliaris)
# Procedure, shortened: (§2)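 Seeds were sown in sterilized diluvial soil and covered with about 1.5 cm of soil. An emulsion formulation diluted with water to a predetermined herbicide amount was sprayed evenly onto the soil surface. Plants grew in a greenhouse at 25° C. to 30° C., and the effect was scored three weeks after application using criteria from an earlier test.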
# green foxtail [3] = experiment: Test Example 4: herbicidal effect by soil treatment (Table 19, symbol G); format: in vivo, green foxtail (Setaria viridis)
# Procedure, shortened: as §2
# barnyard grass [4] = experiment: Test Example 4: herbicidal effect by soil treatment (Table 19, symbol H); format: in vivo, barnyard grass (Echinochloa crus-galli)
# Procedure, shortened: as §2
# wild oat [5] = experiment: Test Example 4: herbicidal effect by soil treatment (Table 19, symbol I); format: in vivo, wild oat (Avena fatua)
# Procedure, shortened: as §2
# blackgrass [6] = experiment: Test Example 4: herbicidal effect by soil treatment (Table 19, symbol J); format: in vivo, blackgrass (Alopecurus myosuroides)
# Procedure, shortened: as §2
# Italian ryegrass [7] = experiment: Test Example 4: herbicidal effect by soil treatment (Table 19, symbol K); format: in vivo, Italian ryegrass (Lolium multiflorum)
# Procedure, shortened: as §2
# windgrass [8] = experiment: Test Example 4: herbicidal effect by soil treatment (Table 19, symbol L); format: in vivo, windgrass (Apera spica-venti)
# Procedure, shortened: as §2
# velvetleaf [9] = experiment: Test Example 4: herbicidal effect by soil treatment (Table 19, symbol M); format: in vivo, velvetleaf (Abutilon theophrasti)
# Procedure, shortened: as §2
# redroot pigweed [10] = experiment: Test Example 4: herbicidal effect by soil treatment (Table 19, symbol N); format: in vivo, redroot pigweed (Amaranthus retroflexus)
# Procedure, shortened: as §2
# lambsquarters [11] = experiment: Test Example 4: herbicidal effect by soil treatment (Table 19, symbol O); format: in vivo, lambsquarters (Chenopodium album)
# Procedure, shortened: as §2
# chickweed [12] = experiment: Test Example 4: herbicidal effect by soil treatment (Table 19, symbol P); format: in vivo, common chickweed (Stellaria media)
# Procedure, shortened: as §2
# false cleavers = experiment: Test Example 4: herbicidal effect by soil treatment (Table 19, symbol Q); format: in vivo, false cleavers (Galium spurium)
# Procedure, shortened: as §2
# persian speedwell [13] = experiment: Test Example 4: herbicidal effect by soil treatment (Table 19, symbol R); format: in vivo, Persian speedwell (Veronica persica)
# Procedure, shortened: as §2
# southern crabgrass [14] = experiment: Test Example 5: herbicidal effect by foliage application, plastic box (Table 20, symbol F); format: in vivo, southern crabgrass (Digitaria ciliaris)
# Procedure, shortened: (§3)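 Plants sown in sterilized diluvial soil and grown 14 days in a greenhouse at 25° C to 30° C, then sprayed on the foliage with the compound's emulsion diluted in water to a predetermined herbicide amount. Injury to weeds and crops scored three weeks after application on a visual rating scale.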
# green foxtail [15] = experiment: Test Example 5: herbicidal effect by foliage application, plastic box (Table 20, symbol G); format: in vivo, green foxtail (Setaria viridis)
# Procedure, shortened: as §3
# barnyard grass [16] = experiment: Test Example 5: herbicidal effect by foliage application, plastic box (Table 20, symbol H); format: in vivo, barnyard grass (Echinochloa crus-galli)
# Procedure, shortened: as §3
# wild oat [17] = experiment: Test Example 5: herbicidal effect by foliage application, plastic box (Table 20, symbol I); format: in vivo, wild oat (Avena fatua)
# Procedure, shortened: as §3
# blackgrass [18] = experiment: Test Example 5: herbicidal effect by foliage application, plastic box (Table 20, symbol J); format: in vivo, blackgrass (Alopecurus myosuroides)
# Procedure, shortened: as §3
# Italian ryegrass [19] = experiment: Test Example 5: herbicidal effect by foliage application, plastic box (Table 20, symbol K); format: in vivo, Italian ryegrass (Lolium multiflorum)
# Procedure, shortened: as §3
# windgrass [20] = experiment: Test Example 5: herbicidal effect by foliage application, plastic box (Table 20, symbol L); format: in vivo, windgrass (Apera spica-venti); details: foliage application, AAH 320 g/ha, three weeks after application
# Procedure, shortened: as §3
# velvetleaf [21] = experiment: Test Example 5: herbicidal effect by foliage application, plastic box (Table 20, symbol M); format: in vivo, velvetleaf (Abutilon theophrasti)
# Procedure, shortened: as §3
# redroot pigweed [22] = experiment: Test Example 5: herbicidal effect by foliage application, plastic box (Table 20, symbol N); format: in vivo, redroot pigweed (Amaranthus retroflexus)
# Procedure, shortened: as §3
# lambsquarters [23] = experiment: Test Example 5: herbicidal effect by foliage application, plastic box (Table 20, symbol O); format: in vivo, lambsquarters (Chenopodium album)
# Procedure, shortened: as §3
# chickweed [24] = experiment: Test Example 5: herbicidal effect by foliage application, plastic box (Table 20, symbol P); format: in vivo, common chickweed (Stellaria media)
# Procedure, shortened: as §3
# persian speedwell [25] = experiment: Test Example 5: herbicidal effect by foliage application, plastic box (Table 20, symbol R); format: in vivo, Persian speedwell (Veronica persica)
# Procedure, shortened: as §3
# [26] = foliage application, AAH 320 g/ha, three weeks after application
# [27] = amount of applied herbicide 320 g/ha
# [28] = 320 g/ha, foliage application after 14-day growth, evaluated three weeks after application
smiles,measurement,setting,value
CCCC(=O)Oc1c(OC)nn(C)c(=O)c1-c1c(-c2ccc(F)c(C)c2)sc2ccccc12 [1-175],"herbicidal effect on H (barnyard grass), rating 0-5",barnyard grass [1],0 (Herbicidal rate of 5% or less (almost no effect))
same,"herbicidal effect on D (Chinese sprangletop), rating 0-5",Chinese sprangletop,0 (Herbicidal rate of 5% or less (almost no effect))
same,"herbicidal effect on E (rice flat sedge), rating 0-5",rice flat sedge,3 (Herbicidal rate of 40% or more and less than 70%)
same,"F: southern crabgrass, herbicidal effect rating",southern crabgrass [2]; AAH 320 g/ha,0 (Herbicidal rate of 5% or less (almost no effect))
same,"G: green foxtail, herbicidal effect rating",green foxtail [3]; AAH 320 g/ha,1 (Herbicidal rate of 5% or more and less than 20%)
same,"H: barnyard grass, herbicidal effect rating",barnyard grass [4]; AAH 320 g/ha,0 (Herbicidal rate of 5% or less (almost no effect))
same,"I: wild oat, herbicidal effect rating",wild oat [5]; AAH 320 g/ha,0 (Herbicidal rate of 5% or less (almost no effect))
same,"J: blackgrass, herbicidal effect rating",blackgrass [6]; AAH 320 g/ha,0 (Herbicidal rate of 5% or less (almost no effect))
same,"K: Italian ryegrass, herbicidal effect rating",Italian ryegrass [7]; AAH 320 g/ha,2 (Herbicidal rate of 20% or more and less than 40%)
same,"L: windgrass, herbicidal effect rating",windgrass [8]; AAH 320 g/ha,1 (Herbicidal rate of 5% or more and less than 20%)
same,"M: velvetleaf, herbicidal effect rating",velvetleaf [9]; AAH 320 g/ha,3 (Herbicidal rate of 40% or more and less than 70%)
same,"N: redroot pigweed, herbicidal effect rating",redroot pigweed [10]; AAH 320 g/ha,4 (Herbicidal rate of 70% or more and less than 90%)
same,"O: lambsquarters, herbicidal effect rating",lambsquarters [11]; AAH 320 g/ha,4 (Herbicidal rate of 70% or more and less than 90%)
same,"P: chickweed, herbicidal effect rating",chickweed [12]; AAH 320 g/ha,0 (Herbicidal rate of 5% or less (almost no effect))
same,"Q: false cleavers, herbicidal effect rating",false cleavers; AAH 320 g/ha,0 (Herbicidal rate of 5% or less (almost no effect))
same,"R: persian speedwell, herbicidal effect rating",persian speedwell [13]; AAH 320 g/ha,0 (Herbicidal rate of 5% or less (almost no effect))
same,"F: southern crabgrass, herbicidal effect",southern crabgrass [14]; [26],0 (Herbicidal rate of 5% or less (almost no effect))
same,"G: green foxtail, herbicidal effect",green foxtail [15]; [26],0 (Herbicidal rate of 5% or less (almost no effect))
same,"H: barnyard grass, herbicidal effect",barnyard grass [16]; [26],0 (Herbicidal rate of 5% or less (almost no effect))
same,"I: wild oat, herbicidal effect",wild oat [17]; [26],0 (Herbicidal rate of 5% or less (almost no effect))
same,"J: blackgrass, herbicidal effect",blackgrass [18]; [26],0 (Herbicidal rate of 5% or less (almost no effect))
same,"K: Italian ryegrass, herbicidal effect",Italian ryegrass [19]; [26],0 (Herbicidal rate of 5% or less (almost no effect))
same,"L: windgrass, herbicidal effect",windgrass [20],0 (Herbicidal rate of 5% or less (almost no effect))
same,"M: velvetleaf, herbicidal effect",velvetleaf [21]; [26],3 (Herbicidal rate of 40% or more and less than 70%)
same,"N: redroot pigweed, herbicidal effect",redroot pigweed [22]; [26],0 (Herbicidal rate of 5% or less (almost no effect))
same,"O: lambsquarters, herbicidal effect",lambsquarters [23]; [26],0 (Herbicidal rate of 5% or less (almost no effect))
same,"P: chickweed, herbicidal effect",chickweed [24]; [26],5 (Herbicidal rate of 90% or more (almost completely withered))
same,"R: persian speedwell, herbicidal effect",persian speedwell [25]; [26],4 (Herbicidal rate of 70% or more and less than 90%)
COc1ccc(-c2sc3c(F)cccc3c2-c2c(O)c(C)nn(C)c2=O)cc1 [4-005],herbicidal effect on barnyard grass (H),barnyard grass [1],4 (Herbicidal rate of 70% or more and less than 90%)
same,herbicidal effect on Chinese sprangletop (D),Chinese sprangletop,3 (Herbicidal rate of 40% or more and less than 70%)
same,herbicidal effect on rice flat sedge (E),rice flat sedge,5 (Herbicidal rate of 90% or more (almost completely withered))
same,"Herbicidal effect by soil treatment, F: southern crabgrass",southern crabgrass [2]; [27],0 (Herbicidal rate of 5% or less (almost no effect))
same,"Herbicidal effect by soil treatment, G: green foxtail",green foxtail [3]; [27],5 (Herbicidal rate of 90% or more (almost completely withered))
same,"Herbicidal effect by soil treatment, H: barnyard grass",barnyard grass [4]; [27],4 (Herbicidal rate of 70% or more and less than 90%)
same,"Herbicidal effect by soil treatment, I: wild oat",wild oat [5]; [27],0 (Herbicidal rate of 5% or less (almost no effect))
same,"Herbicidal effect by soil treatment, J: blackgrass",blackgrass [6]; [27],0 (Herbicidal rate of 5% or less (almost no effect))
same,"Herbicidal effect by soil treatment, K: Italian ryegrass",Italian ryegrass [7]; [27],0 (Herbicidal rate of 5% or less (almost no effect))
same,"Herbicidal effect by soil treatment, L: windgrass",windgrass [8]; [27],0 (Herbicidal rate of 5% or less (almost no effect))
same,"Herbicidal effect by soil treatment, M: velvetleaf",velvetleaf [9]; [27],0 (Herbicidal rate of 5% or less (almost no effect))
same,"Herbicidal effect by soil treatment, N: redroot pigweed",redroot pigweed [10]; [27],0 (Herbicidal rate of 5% or less (almost no effect))
same,"Herbicidal effect by soil treatment, O: lambsquarters",lambsquarters [11]; [27],4 (Herbicidal rate of 70% or more and less than 90%)
same,"Herbicidal effect by soil treatment, P: chickweed",chickweed [12]; [27],4 (Herbicidal rate of 70% or more and less than 90%)
same,"Herbicidal effect by soil treatment, Q: false cleavers",false cleavers; [27],0 (Herbicidal rate of 5% or less (almost no effect))
same,"Herbicidal effect by soil treatment, R: persian speedwell",persian speedwell [13]; [27],5 (Herbicidal rate of 90% or more (almost completely withered))
same,herbicidal effect on F: southern crabgrass (evaluation grade 0-5),southern crabgrass [14]; [28],0 (Herbicidal rate of 5% or less (almost no effect))
same,herbicidal effect on G: green foxtail (evaluation grade 0-5),green foxtail [15]; [28],5 (Herbicidal rate of 90% or more (almost completely withered))
same,herbicidal effect on H: barnyard grass (evaluation grade 0-5),barnyard grass [16]; [28],3 (Herbicidal rate of 40% or more and less than 70%)
same,herbicidal effect on I: wild oat (evaluation grade 0-5),wild oat [17]; [28],0 (Herbicidal rate of 5% or less (almost no effect))
same,herbicidal effect on J: blackgrass (evaluation grade 0-5),blackgrass [18]; [28],0 (Herbicidal rate of 5% or less (almost no effect))
same,herbicidal effect on K: Italian ryegrass (evaluation grade 0-5),Italian ryegrass [19]; [28],4 (Herbicidal rate of 70% or more and less than 90%)
same,herbicidal effect on M: velvetleaf (evaluation grade 0-5),velvetleaf [21]; [28],3 (Herbicidal rate of 40% or more and less than 70%)
same,herbicidal effect on N: redroot pigweed (evaluation grade 0-5),redroot pigweed [22]; [28],3 (Herbicidal rate of 40% or more and less than 70%)
same,herbicidal effect on O: lambsquarters (evaluation grade 0-5),lambsquarters [23]; [28],3 (Herbicidal rate of 40% or more and less than 70%)
same,herbicidal effect on P: chickweed (evaluation grade 0-5),chickweed [24]; [28],5 (Herbicidal rate of 90% or more (almost completely withered))
same,herbicidal effect on R: persian speedwell (evaluation grade 0-5),persian speedwell [25]; [28],5 (Herbicidal rate of 90% or more (almost completely withered))
